This is an account of results in patent publication US10660789B2, “1,4-dihydropyridine derivatives with HSP modulating activity” (Richter Gedeon NYRT., priority 2011, dated 2020).

Structures can show the parent of a compound that is named as a salt.

Test [1] concerns Hsp25. Nature of the test: Other in vitro effects, Hsp25 (Table 3). In kind it is cell-based, mouse and human. On the set-up: key: +: co-inducing activity; −: silencing activity; 0: with the experimental methods applied no other HSP modulating effects could be identified. As for the experimental part: The Hsp co-inducing effect of the compounds on stress response was tested on B16 mouse melanoma and SHSY5Y human neuroblastoma cell lines stably transfected with Hsp promoter probing plasmids. This kind of promoter probing, using the promoter region of a given gene conjugated with fluorescent protein is used as a best and fastest test system for finding drugs which modulate the activity of the gene followed by the given promoter (Wyshocka et al., Mol. Cel. Biochem. 215:153-156, 2000).
Reporter plasmids, containing the Hsp70 and/or Hsp25 promoter conjugated to either YFP or GFP (yellow or green fluorescent protein), were stably transfected into the cells and the expression of YFP or GFP was followed by flow cytometry. Cells were either kept at 37° C. or exposed to heat shock at 42° C. for 1 hour followed by a 16 hour recovery period at 37° C. in the presence or absence of different concentrations of the test compound. After recovery the expression of YFP or GFP which is in straight correlation with the promoter activity of Hsp70 or Hsp27 genes was followed by measuring the fluorescence intensity of the cells by flow cytometry. Fluorescence intensity is in straight correlation with the amount of fluorescent protein (GFP or YFP) produced under the control of hsp promoter. The mean fluorescence intensity of YFP or GFP produced is shown as “Hsp promoter activity”.
Cells were homogenously distributed on 6-well plates in 1×10^5 cells/well density. B16-pHsp25-GFP and B16-pHsp70-YFP melanoma cells were grown in RPMI-1640 medium supplemented with 10% Fetal bovine serum (FBS), penicillin (200 units/ml), streptomycin (200 μg/ml) and 2 mM L-Glutamine. […] The changes in cells' fluorescence were detected using BD FACSCalibur flow cytometer.
SY-SY5Y and B16 cells were extracted in NP-40 lysis buffer (PBS pH 7.4, 1% protease inhibitor coctail and 1% Triton X-100). […] The immune complexes were detected with chemo-luminescent substrate of peroxidase according to the supplier's instructions. Images taken from the membranes were analyzed using AlphaEase FC software.

Test [2] concerns B6SJL-Tg(SOD1*G93A)1Gur/J mice. Kind of test: Lifespan of G93A ALS mouse strain. In kind it is in vivo. The text has this:
Amyotrophic lateral sclerosis (ALS) is a fatal neurodegenerative disease, caused by the death of motor neurons mainly in the spinal cord. The main form of familiar (genetic or inherited) ALS is caused by the mutation of superoxide dismutase 1 (SOD1) gene, which results in […] amyloid-like aggregations and progressive neuronal degenerations. […] The “golden standard” of preclinical ALS drug tests is the use of a specific transgenic mouse strain, which harbors high-copy number of human mutated SOD1 gene, having a mutation of G93A.
The effect of Ex. 23 was investigated on lifespan of G93A ALS mouse strain. A total of 33 transgenic female mice (B6SJL-Tg(SOD1*G93A)1Gur/J) were bred from 4 breeding pairs. The breeding pairs were purchased from the Jackson Laboratory (jax.org). The mice were individually housed in an IVC rack. Standard food pellets and water was available ad libidum. Body weight was monitored daily. The compound Ex. 23 was freshly dissolved in saline every day, and was administered daily intraperitoneally at the onset of symptoms in 10 mg/bwkg. Symptom onset was determined according to ALS-TDI neurological score. Mice treated with Ex. 23 lived longer (FIG. 10) than untreated mice (mean survival 143±3 days; n=8 and 132±3 days; n=25, respectively).

For `COC(=O)C1=C(CCN(C)C)N(C)C(CCN(C)C)=C(C(=O)OC)C1c1ccc(C(F)(F)F)cc1` [Example 23, Dimethyl 4-(4-trifuoromethylphenyl)-2,6-bis-(2-dimethylaminoethyl)-1-methyl-1,4-dihydropyridine-3,5-dicarboxylate dihydrochloride], the “Other in vitro effects: Hsp25” value in test [1] was “Hsp25 0”. In test [2] (10 mg/bwkg daily i.p. from onset of symptoms, n=8, FIG. 10), this compound showed a mean survival of 143 ± 3 days. The In vivo efficacy entry in test [2] (model in which efficacy was shown) was “ALS”.
